Test results from patent EP4692091A1, “CA[…], AND PHARMACEUTICAL COMPOSITION, PREPARATION METHOD THEREFOR AND USE THEREOF” (Changchun Genescience Pharmaceutical Co., Ltd., priority 2023, dated 2024).

Tests used:
Assay type in all cases: cell-based
[1] = tested on: SK-BR-3; assay: Inhibition of proliferation of SK-BR-3 cells by compounds (CellTiter-Glo, 72 h); details: SK-BR-3, 72 h incubation
Protocol: 3: Test method (1) Cell plating: first, tumor cells SK-BR-3 were cultured using a corresponding culture medium, trypsinized, centrifuged, resuspended for counting, adjusted to an appropriate concentration, and then plated on a 384-well plate. (2) Co-incubation of the compounds and tumor cells: after the cells adhered to the wall, 100 nL of a diluted bioactive substance (test compound) was added to the cell culture plate using ECHO, the final concentration of DMSO in wells of the cell plate was 0.33%, and the incubation was performed in an incubator at 37°C with 5% CO2 for 72 h. (3) After the incubation was complete, 30 µL of a CTG reagent (CelltiterGlo kit) was added to each well. The culture was oscillated on a fast oscillator for 2 min, centrifuged at 1,000 rpm for 1 min, and kept away from light at room temperature for 30 min. The chemiluminescence signal value was read using an Envision instrument. (4) Cell viability detection: IC50 was calculated using GraphPad Prism 8 software, and the IC50 of the compounds was obtained using the following nonlinear fitting formula (see Table 1) : 1. Y=Bottom+(Top-Bottom)/(1+10^((LogIC50-X)*HillSlope)) 2. […] Table 1 Antiproliferative activity of test compounds on SK-BR-3

[2] = tested on: MDA-MB-468; assay: Inhibition of proliferation of MDA-MB-468 cells by test compounds (CellTiter-Glo, 72 h); details: MDA-MB-468, 72 h incubation
Protocol: 3: Test method • (1) Cell plating: first, tumor cells MDA-MB-468 were cultured using a corresponding culture medium, trypsinized, centrifuged, resuspended for counting, adjusted to an appropriate concentration, and then plated on a 384-well plate. • (2) Co-incubation of the compounds and tumor cells: after the cells adhered to the wall, 100 nL of a diluted bioactive substance (test compound) was added to the cell culture plate using ECHO, the final concentration of DMSO in wells of the cell plate was 0.33%, and the incubation was performed in an incubator at 37°C with […] for 72 h. • (3) After the incubation was complete, 30 µL of a CTG reagent (CelltiterGlo kit) was added to each well. The culture was oscillated on a fast oscillator for 2 min, centrifuged at 1,000 rpm for 1 min, and kept away from light at room temperature for 30 min. The chemiluminescence signal value was read using an Envision instrument. • (4) Cell viability detection: IC50 was calculated using GraphPad Prism 8 software, and the IC50 of the compounds was obtained using the following nonlinear fitting formula (see Table 2): • 6. Y=Bottom+(Top-Bottom)/(1+10^((LogIC50-X)*HillSlope)) • 7. […] Table 2 Antiproliferative activity of test compounds on MDA-MB-468

[3] = tested on: NCI-N87; assay: Inhibition of proliferation of NCI-N87 cells by test compounds (CellTiter-Glo, 72 h); details: NCI-N87, 72 h incubation
Protocol: 3: Test method (1) Cell plating: first, tumor cells NCI-N87 were cultured using a corresponding culture medium, trypsinized, centrifuged, resuspended for counting, adjusted to an appropriate concentration, and then plated on a 384-well plate. (2) Co-incubation of the compounds and tumor cells: after the cells adhered to the wall, 100 nL of a diluted bioactive substance (test compound) was added to the cell culture plate using ECHO, the final concentration of DMSO in wells of the cell plate was 0.33%, and the incubation was performed in an incubator at 37°C with […] for 72 h. (3) After the incubation was complete, 30 µL of a CTG reagent (CelltiterGlo kit) was added to each well. The culture was oscillated on a fast oscillator for 2 min, centrifuged at 1,000 rpm for 1 min, and kept away from light at room temperature for 30 min. The chemiluminescence signal value was read using an Envision instrument. (4) Cell viability detection: IC50 was calculated using GraphPad Prism 8 software, and the IC50 of the compounds was obtained using the following nonlinear fitting formula (see Table 3) : 11. Y=Bottom+(Top-Bottom)/(1+10^((LogIC50-X)*HillSlope)) 12. […] Table 3 Antiproliferative activity of test compounds on cells NCI-N87

C=Cc1c(F)cc2nc3c(c4c2c1CCC4NC(=O)C[C@@H](C)O)Cn1c-3cc2c(c1=O)COC(=O)[C@]2(O)CC (stereo partly drawn) [7-2, (R)-N-((1R,9S)-9-ethyl-5-fluoro-9-hydroxy-10,13-dioxo-4-vinyl-2,3,9,10,13,15-hexahydro-1H,12H-benzo[de]pyrano[3',4',6,7]indolizino[1,2-b]quinolin-1-yl)-3-hydroxybutanamide]
IC50 [1]: 7.6 nM | IC50 [2]: 4.4 nM | IC50 [3]: 4.9 nM

CC[C@@]1(O)C(=O)OCc2c1cc1n(c2=O)Cc2c-1nc1cc(F)c(OCC(F)(F)F)c3c1c2C(NC(=O)C[C@@H](C)O)CC3 (stereo partly drawn) [8-1, (R)-N-((1S,9S)-9-ethyl-5-fluoro-9-hydroxy-10,13-dioxo-4-(2,2,2-trifluoroethoxy)-2,3,9,10,13,15-hexahydro-1H,12H-benzo[de]pyrano[3',4',6,7]indolizino[1,2-b]quinolin-1-yl)-3-hydroxybutanamide]
IC50 [1]: 44 nM | IC50 [2]: 13 nM | IC50 [3]: 4.2 nM

CC[C@@]1(O)C(=O)OCc2c1cc1n(c2=O)Cc2c-1nc1cc(F)c(C)c3c1c2[C@H](NC(=O)C[C@@H](C)O)CCO3 [24-1, (R)-N-((1R,10S)-10-ethyl-6-fluoro-10-hydroxy-5-methyl-11,14-dioxo-2,3,10,11,14,16-hexahydro-1H,13H-oxepino[4,3,2-de]pyrano[3',4':6,7]indolizino[1,2-b]quinolin-1-yl)-3-hydroxybutanamide]
IC50 ([1]; Homo sapiens, SK-BR-3, 72 h): 47 nM | IC50 ([2]; Homo sapiens, MDA-MB-468, 72 h): 38 nM | IC50 ([3]; Homo sapiens, NCI-N87, 72 h): 65 nM

CC[C@@]1(O)C(=O)OCc2c1cc1n(c2=O)Cc2c-1nc1cc(F)c(C)c3c1c2[C@@H](NC(=O)C[C@@H](C)O)CCO3 [24-2, (R)-N-((1S,10S)-10-ethyl-6-fluoro-10-hydroxy-5-methyl-11,14-dioxo-2,3,10,11,14,16-hexahydro-1H,13H-oxepino[4,3,2-de]pyrano[3',4':6,7]indolizino[1,2-b]quinolin-1-yl)-3-hydroxybutanamide]
IC50 ([1]; Homo sapiens, SK-BR-3, 72 h): 16 nM | IC50 ([2]; Homo sapiens, MDA-MB-468, 72 h): 14 nM | IC50 ([3]; Homo sapiens, NCI-N87, 72 h): 24 nM

CC[C@@]1(O)C(=O)OCc2c1cc1n(c2=O)Cc2c-1nc1cc(F)c(C)c3c1c2[C@@H](NC(=O)[C@H](O)C1CC1)CCO3 [35-1, (R)-2-cyclopropyl-N-((1S,10S)-10-ethyl-6-fluoro-10-hydroxy-5-methyl-11,14-dioxo-2,3,10,11,14,16-hexahydro-1H,13H-oxepino[4,3,2-de]pyrano[3',4':6,7]indolizino[1,2-b]quinolin-1-yl)-2-hydroxyacetamide]
IC50 ([1]; Homo sapiens, SK-BR-3, 72 h): 16 nM | IC50 ([2]; Homo sapiens, MDA-MB-468, 72 h): 12 nM | IC50 ([3]; Homo sapiens, NCI-N87, 72 h): 14 nM

CC[C@@]1(O)C(=O)OCc2c1cc1n(c2=O)Cc2c-1nc1cc(F)c(C)c3c1c2[C@@H](NC(=O)[C@@H](O)C1CC1)CCO3 [35-2, (S)-2-cyclopropyl-N-((1S,10S)-10-ethyl-6-fluoro-10-hydroxy-5-methyl-11,14-dioxo-2,3,10,11,14,16-hexahydro-1H,13H-oxepino[4,3,2-de]pyrano[3',4':6,7]indolizino[1,2-b]quinolin-1-yl)-2-hydroxyacetamide]
IC50 ([1]; Homo sapiens, SK-BR-3, 72 h): 9 nM | IC50 ([2]; Homo sapiens, MDA-MB-468, 72 h): 9 nM | IC50 ([3]; Homo sapiens, NCI-N87, 72 h): 10 nM

CC[C@@H](O)CC(=O)N[C@H]1CCCc2c(C)c(F)cc3nc4c(c1c23)Cn1c-4cc2c(c1=O)COC(=O)[C@]2(O)CC [36-1, (R)-N-((1S,10S)-10-ethyl-6-fluoro-10-hydroxy-5-methyl-11,14-dioxo-1,2,3,4,10,11,14,16-octahydro-13H-cyclohepta[3',4':6,7]indolizino[1,2-b]quinolin-1-yl)-3-hydroxypentanamide]
IC50 [1]: 9.2 nM | IC50 [2]: 14 nM | IC50 [3]: 8.5 nM

CC[C@H](O)CC(=O)N[C@H]1CCCc2c(C)c(F)cc3nc4c(c1c23)Cn1c-4cc2c(c1=O)COC(=O)[C@]2(O)CC [36-2, (S)-N-((1S,10S)-10-ethyl-6-fluoro-10-hydroxy-5-methyl-11,14-dioxo-1,2,3,4,10,11,14,16-octahydro-13H-cyclohepta[3',4':6,7]indolizino[1,2-b]quinolin-1-yl)-3-hydroxypentanamide]
IC50 [1]: 4.4 nM | IC50 [2]: 6.4 nM | IC50 [3]: 3.9 nM

CC[C@@]1(O)C(=O)OCc2c1cc1n(c2=O)Cc2c-1nc1cc(F)c(C)c3c1c2[C@@H](NC(=O)C[C@@H](O)C(C)C)CCC3 [37-2, (R)-N-((1S,10S)-10-ethyl-6-fluoro-10-hydroxy-5-methyl-11,14-dioxo-1,2,3,4,10,11,14,16-octahydro-13H-cyclohepta[3',4':6,7]indolizino[1,2-b]quinolin-1-yl)-3-hydroxy-4-methylpentanamide]
IC50 [1]: 6.6 nM | IC50 [2]: 6.6 nM | IC50 [3]: 3.2 nM

(R)-2-cyclopropyl-N-((1S,10S)-5-cyclopropyl-10-ethyl-6-fluoro-10-hydroxy-11,14-dioxo-1,2,3,4,10,11,14,16-octahydro-13H-cyclohepta[3',4':6,7]indolizino[1,2-b]quinolin-1-yl)-2-hydroxyacetamide [33-1]
IC50 [1]: 7.8 nM | IC50 [2]: 6 nM | IC50 [3]: 8 nM

(R)-3-cyclopropyl-N-((1S,10S)-10-ethyl-6-fluoro-10-hydroxy-5-methyl-11,14-dioxo-1,2,3,4,10,11,14,16-octahydro-13H-cyclohepta[3',4':6,7]indolizino[1,2-b]quinolin-1-yl)-3-hydroxypropanamide [38-1]
IC50 [1]: 12 nM | IC50 [2]: 13 nM | IC50 [3]: 7.5 nM

(S)-2-cyclopropyl-N-((1S,10S)-5-cyclopropyl-10-ethyl-6-fluoro-10-hydroxy-11,14-dioxo-1,2,3,4,10,11,14,16-octahydro-13H-cyclohepta[3',4':6,7]indolizino[1,2-b]quinolin-1-yl)-2-hydroxyacetamide [33-2]
IC50 [1]: 8.4 nM | IC50 [2]: 5 nM | IC50 [3]: 9 nM

(S)-3-cyclopropyl-N-((1S,9S)-4-cyclopropyl-9-ethyl-5-fluoro-9-hydroxy-10,13-dioxo-2,3,9,10,13,15-hexahydro-1H,12H-benzo[d]pyrano[3',4':6,7]indolizino[1,2-b]quinolin-1-yl)-3-hydroxypropanamide [34-1]
IC50 [1]: 5.1 nM | IC50 [2]: 4 nM | IC50 [3]: 6 nM

(S)-3-cyclopropyl-N-((1S,10S)-10-ethyl-6-fluoro-10-hydroxy-5-methyl-11,14-dioxo-1,2,3,4,10,11,14,16-octahydro-13H-cyclohepta[3',4':6,7]indolizino[1,2-b]quinolin-1-yl)-3-hydroxypropanamide [38-2]
IC50 [1]: 5.4 nM | IC50 [2]: 5.7 nM | IC50 [3]: 2.9 nM

(S)-N-((1S,10S)-10-ethyl-6-fluoro-10-hydroxy-5-methyl-11,14-dioxo-1,2,3,4,10,11,14,16-octahydro-13H-cyclohepta[3',4':6,7]indolizino[1,2-b]quinolin-1-yl)-3-hydroxy-4-methylpentanamide [37-1]
IC50 [1]: 19 nM | IC50 [2]: 19 nM | IC50 [3]: 8.6 nM
